This note sets out measurements from US8846670B2, “1,2,3,4-tetrahydro-pyrimido(1,2-a)pyrimidin-6-one derivatives, preparation thereof, and pharmaceutical use thereof” (priority 2009, dated 2014).

Holding throughout (format): cell-based
Assay [1] has as its system translocation of the LC3 protein in Hela GFP-LC3 cells. Description: Study of the translocation of the LC3 protein in Hela human cells, measured by image analysis cytometry (Test C, autophagy). As to conditions: Homo sapiens, HeLa, 2 h, Hela GFP-LC3 cells with LC3 granulations, EBSS + 10 μM hydroxychloroquine, absolute IC50.
The subject of assay [2] is AKT protein phosphorylated on serine 473 (pAKT-S473) in PC3 human prostate carcinoma line. Description: Study of pAKT expression in PC3 human prostate carcinoma cells measured by western blotting (Test A). The conditions noted are these: PC-3, 1 to 2 hours incubation, approximate absolute IC50, mean of two experiments. As for the experimental part:
The inhibitory activity of the molecules on AKT phosphorylation is measured either by western blotting using the technique described below, or by the MSD Multi-spot Biomarker detection technique from Meso Scale Discovery also described below. […] Study of pAKT Expression in Pc3Human Prostate Carcinoma Cells Measured by Western Blotting (Test A): This test is based on measuring the expression of the AKT protein phosphorylated on […]. […] On day 2, the cells are incubated in the presence or absence of the test products for 1 to 2 hours at 37° C. in the presence of 5% CO2. The molecules, diluted in dimethyl sulphoxide (DMSO Sigma #D2650), are added from a 10-times concentrated stock solution, the final percentage of DMSO being 0.1%. […] After this incubation, the cells are lysed for the preparation of the proteins. […] The lysate is centrifuged for 10 min at 6000 rpm. 155 μl of supernatant are recovered. 150 μl are incubated for denaturation for 5 min at 95° C. in the presence of 4× NuPAGE LDS Sample Buffer diluted 4-fold (InVitrogen ref NP0007) and of 10× NuPAGE Sample Reducing Agent diluted 10-fold (InVitrogen ref NP0009). These samples are then frozen at -20° C. […] The gel is then transferred on to an Invitrolon PVDF membrane (Invitrogen #LC2007) permeabilised beforehand for a few seconds in ethanol (Ethanol Fischer Scientific #E/0600DF/15). The transfer is carried out in a Biorad tank at 30 volts overnight or at 60 volts for 3 hours, in the presence of 20× NUPAGE Transfer Buffer diluted 20-fold (InVitrogen ref NP0006). The membrane is then saturated in saturating solution composed of TBS (10× Tris Buffered Saline, Sigma #T5912, diluted 10-fold), 0.1% Tween 20 (Sigma #P5927) and 3% BSA (Bovine Serum Albumin Fraction V, Sigma #A4503) for 6 h after overnight transfer or else for 1 h after transfer for a period of 3 h. […] Two rinses for 5 min in washing solution composed of TBS and 0.1% Tween 20 are carried out before hybridisation of the secondary antibodies. The secondary antibodies are diluted to 1/10000th for the rabbit anti-Mouse IgG HRP antibody ([…] Promega) and to 1/10000th for the goat anti-Rabbit IgG HRP antibody ([…] Promega) in saturating solution, and then shaken for 1 h at ambient temperature. Two rinses for 30 min in washing solution are carried out and then a rinse for 5 min in H2O is carried out in order to eliminate the remaining Tween 20. […] The luminescence is read with the FujiFilm device (Ray Test). The FUJI device measures the total luminescence signal obtained (AU) for each band selected. It then subtracts the background noise (BG) proportional to the size of the band selected (Area), said background noise being calculated from a specific background noise band, with a view to obtaining the specific signal (AU-BG) for each band. The band obtained in the absence of product and in the presence of 0.1% DMSO is considered to be the 100% signal. The software calculates the % specific activity (Ratio) obtained for each band selected as a function of this 100% signal. The percentage inhibition is calculated for each concentration according to the formula (100%-Ratio). Two independent experiments make it possible to calculate the mean of the percentages of inhibition obtained at a given concentration for the products tested only at one concentration. […] Two independent experiments make it possible to calculate the mean of the IC50 values.
A general note: Immunoblotting shows a protein as a band on a membrane.

Assay [3] has as its system P. falciparum (highly chloroquine-resistant strain Fcm29-Cameroon). Description: Antimalarial activity test (radioactive micromethod of Desjardins). As to conditions: Plasmodium falciparum, Erythrocyte, infected human erythrocytes, 48 h, tritiated hypoxanthine incorporation. As for the experimental part:
Antimalarial Activity Test
The P. falciparum strains are cultured in solutions of RPM! […] For each assay, the parasites are incubated with selected concentrations of drugs for 48 h at 37° C. in a humid atmosphere and at 5% CO2. Artemisinin, artesunate and also chloroquine diphosphate are used as reference molecules. The first dilution of the drug is prepared at 1 mg/ml in dimethyl sulphoxide. The range of successive daughter solution dilutions is also prepared in dimethyl sulphoxide. […] These dilutions are then added to the parasites in culture in the microplates. […] The growth of the parasites is measured by incorporation of tritiated hypoxanthine (added 24 h after the beginning of the exposure to the drug) compared with the incorporation in the absence of drug.

Assay [4] relates to AKT protein phosphorylated on serine 473 (P-AKT-S473) in PC3 human prostate carcinoma line. Description: Study of pAKT expression in PC3 human prostate carcinoma cells measured by the MSD Multi-spot Biomarker Detection technique (Test B). As to conditions: Homo sapiens, PC-3, P-AKT-S473 in PC3 cells, MSD sandwich immunoassay, 1 to 2 h incubation; absolute IC50, mean of 2 experiments.

SMILES strings stand for the structures.

For the compound `O=c1cc(N2CCOCC2)nc2n1CC[C@@H](C(F)(F)F)N2c1ccncc1` [Example 20, (S)-2-morpholin-4-yl-9-pyridin-4-yl-8-trifluoromethyl-6,7,8,9-tetrahydropyrimido[1,2-a]pyrimidin-4-one], the IC50 – broadly, the concentration needed to halve the response being measured – in assay [1] is > 1000 nM; in assay [2], 60 nM.
On to `COc1ccc(CCN2c3nc(N4CCOCC4)cc(=O)n3CC[C@H]2C(F)(F)F)cc1` [Example 1, (S)-9-[2-(4-methoxyphenyl)ethyl]-2-morpholin-4-yl-8-trifluoromethyl-6,7,8,9-tetrahydropyrimido[1,2-a]pyrimidin-4-one], for which the results for the IC50 in assay [1] and in assay [2] were 11 nM and 15 nM, respectively. The inhibition (usually the change of the read-out against control, counted positive when it falls) at 0.1 µM in assay [3] amounted to 79%. Further, the inhibition at 1 µM in assay [3] was determined as 99%.
For the compound `O=c1cc(N2CCOCC2)nc2n1CC[C@@H](C(F)(F)F)N2c1ccccc1` [Example 12, (8S)-2-(morpholin-4-yl)-9-phenyl-8-(trifluoromethyl)-6,7,8,9-tetrahydro-4H-pyrimido[1,2-a]pyrimidin-4-one], the IC50 in assay [1] was determined as 441 nM; in assay [2], 6600 nM. Moreover, in assay [3], the inhibition at 1 µM was 59%.
As to `O=c1cc(N2CCOCC2)nc2n1CC[C@@H](C(F)(F)F)N2Cc1ccccc1` [Example 4, (S)-9-benzyl-2-morpholin-4-yl-8-trifluoromethyl-6,7,8,9-tetrahydropyrimido[1,2-a]pyrimidin-4-one], in assay [1], the IC50 amounted to 569 nM. Besides, in assay [3], the inhibition at 0.1 µM was 19% and the inhibition at 1 µM was 97%. This compound gave an IC50 in assay [2] of 265 nM.
For `C[C@@H](c1ccc(Br)cc1)N1c2nc(N3CCOCC3)cc(=O)n2CC[C@H]1C(F)(F)F` (single isomer, unassigned) [Example 10, (8S)-9-[R1R or 1S)-1-(4-bromophenyl)ethyl]-2-(morpholin-4-yl)-8-(trifluoromethyl)-6,7,8,9-tetrahydro-4H-pyrimido[1,2-a]pyrimidin-4-one], the IC50 in assay [1] is 249 nM; in assay [2], 357 nM.
For `O=c1cc(N2CCOCC2)nc2n1CC[C@@H](C(F)(F)F)N2Cc1ccc(F)cc1` [Example 17, (8S)-9-(4-fluorobenzyl)-2-(morpholin-4-yl)-8-(trifluoromethyl)-6,7,8,9-tetrahydro-4H-pyrimido[1,2-a]pyrimidin-4-one] the same measures were 119 nM and 350 nM.
The corresponding values for `C[C@H](c1cccc(F)c1)N1c2nc(N3CCOCC3)cc(=O)n2CC[C@H]1C(F)(F)F` (single isomer, unassigned) [Example 16, (8S)-9-[(1R or 1S)-1-(3-fluorophenyl)ethyl]-2-(morpholin-4-yl)-8-(trifluoromethyl)-6,7,8,9-tetrahydro-4H-pyrimido[1,2-a]pyrimidin-4-one] are 187 nM and 41 nM.
The corresponding values for `C[C@@H](c1ccccc1)N1c2nc(N3CCOCC3)cc(=O)n2CC[C@H]1C(F)(F)F` (single isomer, unassigned) [Example 8, (8S)-2-(morpholin-4-yl)-9-[(1R or 1S)-1-phenylethyl]-8-(trifluoromethyl)-6,7,8,9-tetrahydro-4H-pyrimido[1,2-a]pyrimidin-4-one] are 462 nM and 75 nM.
As to `O=c1cc(N2CCOCC2)nc2n1CC[C@@H](C(F)(F)F)N2CCc1ccccc1` [Example 3, (S)-2-morpholin-4-yl-9-phenethyl-8-trifluoromethyl-6,7,8,9-tetrahydropyrimido[1,2-a]pyrimidin-4-one], the IC50 turned out to be 20 nM in assay [1] and 15 nM in assay [2].
Regarding `O=c1cc(N2CCOCC2)nc2n1CC[C@@H](C(F)(F)F)N2c1ccccc1F` [Example 15, (8S)-9-(2-fluorophenyl)-2-(morpholin-4-yl)-8-(trifluoromethyl)-6,7,8,9-tetrahydro-4H-pyrimido[1,2-a]pyrimidin-4-one], the results for the IC50 in assay [4], in assay [1] and in assay [2] were 7 nM, > 1000 nM and 2720 nM, respectively.
With `COc1ccc(CCN2c3nc(N4CCOCC4)cc(=O)n3CCC2C(F)(F)F)cc1` (racemic) [Example 2, (R,S)-9-[2-(4-methoxyphenyl)ethyl]-2-morpholin-4-yl-8-trifluoromethyl-6,7,8,9-tetrahydropyrimido[1,2-a]pyrimidin-4-one], the IC50 in assay [1] was 16 nM; in assay [2], 315 nM.
